Measurements reported in ChEMBL document CHEMBL1148633, “Inhibition of carbonic anhydrase-II by sulfamate and sulfamide groups: an investigation involving direct thermodynamic binding measurements” (J Med Chem, 2006).

Key:
[1] = biological target: T1, Carbonic anhydrase 2 (Homo sapiens, UniProt P00918); assay: Binding affinity to human CA2 at pH 7.4 by ThermoFluor assay
[2] = biological target: T1, Carbonic anhydrase 2
Description: Inhibition of human CA2 by carbon dioxide hydration

[3] = biological target: T1, Carbonic anhydrase 2; assay: Binding affinity to human CA2 in presence of sodium sulfate and ANS at pH 7.5 by ThermoFluor assay
[4] = biological target: T1, Carbonic anhydrase 2; assay: Inhibition of human CA2 by 4-nitrophenyl acetate hydrolysis

| Structure (SMILES) | Kd [1] [nM] | Ki [2] [nM] | Kd [3] [nM] | Ki [4] [nM] |
| --- | --- | --- | --- | --- |
| COc1ccc(NS(N)(=O)=O)cc1 | 5000 | 14400 | 2650 | 18800 |
| NS(=O)(=O)Nc1ccc([N+](=O)[O-])cc1 | 1500 | 892 | 1000 | 1740 |
